In patent publication US4987140A, “Pyridines” (Roussel Uclaf, priority 1987, dated 1991):

Test system: chronic-arthritis with adjuvant (increase in volume of the rear paws)
Experiment: Anti-inflammatory activity: chronic-arthritis with adjuvant (preventative treatment)
Format: in vivo, rat
Conditions: male rats aged 42 to 50 days, intra-plantar Freund type adjuvant, product orally from day 0 up to the day before killing (day 17), 24480 min
Method: Anti-inflammatory activity: chronic-arthritis with adjuvant (preventative treatment)
In the rat, the injection of Freund type adjuvant in a rear paw causes the rapid appearance of a primary inflammatory lesion in this paw and then, after a latency period of 13 to 15 days, the start up of a secondary arthritic affection, particularly in the other rear paw. The test was carried out on male rats aged 42 to 50 days which received an intra-plantar injection of 0.1 ml of "Freund" type adjuvant (suspension in vaseline oil of 6 mg per ml of killed mycobacterium butyricum). The animals received the product orally from day 0 (day of injection of adjuvant) up to the day before they were killed, which occured on day 17. Control arthritic animals and control normal animals received only the vehicle. The criteria of appreciation of the activity of the substances studied was the increases in volume of the injected rear paws (primary and secondary inflammation) and the non-injected ones (secondary inflammation)by comparison with the average volume of the corresponding paws of normal controls. The DA50 was determined, that is to say, the dose which reduced by 50% the increase in volume of the rear paws of the treated animals in comparison with the control animals.

Row | SMILES | DA50 (dose which reduced by 50% the increase in volume of the rear paws of the treated animals in comparison with the control animals)
1 | Cc1c(-c2ccccc2)nc(C(F)(F)F)c(C(=O)Nc2nccs2)c1O [Example 1, 4-hydroxy-5-methyl-6-phenyl-N-(2-thiazolyl)-2-trifluoromethyl-3-pyridine carboxamide] | 0.3 mg/k
2 | O=C(Nc1nccs1)c1c(C(F)(F)F)nc(-c2ccccc2)c(-c2ccccc2)c1O [Example 3, 5,6-diphenyl-4-hydroxy-N-(2-thiazolyl)-2-trifluoromethyl-3-pyridine carboxamide] | 15 mg/k
